Tests used:
[1] = tested on: Cortical neurons from E14 wild-type mice; assay: Toxicity in primary cultured neurons (percentage of picnotic bodies); format: cell-based; conditions: 24 h
Excerpt: Mean ± SD from three independent experiments. The curves represent the least squares fitting of the experimental data to a 1:1 stoichiometry. To properly compare the different curves, intensities were normalized and represented. […] Input represents 1/10 cell lysates before IP. Quantifications of each lane from four experiments are shown below the blots. Bars represent percentage of NCS-1/ Ric8a binding (mean ± SD) normalized to DMSO. […] CNS + (green) for Pe > 4.47 × 10^−6 cm s^−1, CNS- (red) for compounds with Pe < 4.47 × 10^–6 cm s^−1. […] Mean ± SD from three independent experiments. […] Then, the percentage of picnotic bodies over the total nuclei was analyzed. Mean ± SD from three independent experiments. Paired two-tailed Student’s test ***P˂0.001; **P < 0.01; *P < 0.05. Source data are provided as a Source Data file. IP immunoprecipitation, WB western blot
Finally, cell toxicity in neurons was quantified as percentage of picnotic bodies for 3b (Fig. 6d).
Cortical neurons were obtained from E14 wt mice (C57BL6J). Mice were maintained in accordance to European law and following Hospital Ramón y Cajal´s animal guidelines. […] Three independent experiments counting cells from three different wells per concentration were performed. To analyzed cell death, neurons were fixed and stained with DAPI.

dNCS-1 = target: T1, dNCS-1 (Drosophila melanogaster, UniProt Q9VWX8); assay: tr-NOESY, DOSY and 1H-NMR of DCL mixtures in the presence of dNCS-1; format: binding; conditions: 281 K, up to 15 days
T1 construct: made in house; host or cells: E. coli
T1 sequence (Q9VWX8 1-187): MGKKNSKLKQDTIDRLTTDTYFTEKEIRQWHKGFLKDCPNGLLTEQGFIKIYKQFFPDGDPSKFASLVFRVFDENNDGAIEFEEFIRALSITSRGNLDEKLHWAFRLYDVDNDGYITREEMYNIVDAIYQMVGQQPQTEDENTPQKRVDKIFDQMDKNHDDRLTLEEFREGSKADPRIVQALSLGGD
Protocol: Fig. 4 HPLC-MS and NMR studies of the full dynamic combinatorial library. a DCL chromatograms after 5 h in the absence and in the presence of dNCS-1. Conditions: aldehyde 1 (1.2 µL, 50 mM), 2a–2e (3.6 µL, 50 mM), catalyst (1 µL, 12 M), dNCS-1:1 [1:1], Tris buffer (20 mM, pH 7.4), 1 mM CaCl2, 0.5 M NaCl, 1 mM DTT, T = 4 °C, 2% DMSO. DCC experiments were carried out in triplicate. b 1D-^1H NMR spectrum (red) of the mixture and DOSY experiment (black) of the DCL in the presence of dNCS-1 (281 K, 600 MHz). c Tr-NOESY spectrum of the DCL mixture in the presence of dNCS-1 (mixing time 200 ms, 281 K, 600 MHz). Amplification of the region δ 7.2–8.0 ppm. […]. The new signals that reveal the formation of 3b (aromatic region) and 2c (aliphatic region) are marked with stars. ^1H-STD-NMR (blue) and off-resonance (red) NMR spectra of the mixture 2b + 3c + dNCS-1 (281 K, 600 MHz) after 15 days
DOSY-NMR and tr-NOESY-NMR experiments were also recorded to follow the exchange process.
The experiments were performed on the same samples and spectrometer, at 281 K. The tr-NOESY mixing time was fixed at 200 ms. The DOSY experiments were acquired with 16 gradient increments to a final intensity decay of 90%.

[2] = pH 7.9
Protocol: Fluorescence-based experiments with 3a–3e were carried out to estimate their affinity to dNCS-1.

[3] = tested on: Drosophila model of Alzheimer's disease (motoneuron overexpression of human aβ42arc); assay: Synapse number quantification at the neuromuscular junction of flies fed with compound; format: in vivo; conditions: vs DMSO
Protocol: Aβ42arc overexpressing flies and the corresponding control (LacZ expression) were fed with 3b or the solvent, DMSO, throughout all life cycle (Fig. 9 and see Methods section).
Fig. 9 In vivo effects of compound 3b. Flies with motoneuron overexpression of the human aβ42arc (arctic mutation) (D42Gal4 > aβ42arc) or mock expression (D42Gal4 > LacZ) were fed with 3b (100 μM) or same volume of vehicle DMSO. a Twenty-day old adult abdominal motoneurons were analyzed and synapse number (nc82-positive spots) of the same motoneuron in different flies (16–19) were determined using Imaris, over the confocal 1 µm stacks. […] Data are analyzed statistically with unpaired two-tailored Student’s t test; ***P < 0.001. b Locomotor activity of individual 15 days old flies was recorded for 4 days in Drosophila Activity Monitors (DAM2, Trikinetics)[36], the total number of beam breaks per hour during two consecutive days was analyzed (the activity of the first two days is considered the habituation period and is discarded). Mean ± SEM of three independent experiments with 5–12 flies per condition each, were plotted and analyzed statistically with paired two-tailed Student’s t-test, *P < 0.05. […]
The Drosophila neuromuscular junction (NMJ) allows the accurate quantitative determination of the in vivo effects of drug application on a single glutamatergic synapse. […]

solubility observed under the experimental conditions [2]: soluble
SMILES: O=C(Cc1c[nH]c2ccccc12)NN=Cc1ccc([N+](=O)[O-])c(O)c1 (mixture of isomers) [3b]
percentage of picnotic bodies, % exp 2 ([1]; 0.2 μM): 12%
percentage of picnotic bodies, % exp 3 ([1]; 0.2 μM): 10%
percentage of picnotic bodies, % exp.1 ([1]; 0.2 μM): 10.1%
percentage of picnotic bodies over total nuclei, average ([1]; 0.2 μM, DMSO 8.4): 10.7%
percentage of picnotic bodies, % exp 2 ([1]; 2 μM): 10%
percentage of picnotic bodies, % exp 3 ([1]; 2 μM): 10%
percentage of picnotic bodies, % exp.1 ([1]; 2 μM): 13.4%
percentage of picnotic bodies over total nuclei, average ([1]; 2 μM, DMSO 8.06667): 11.1333%
percentage of picnotic bodies, % exp 2 ([1]; 10 μM): 12.5%
percentage of picnotic bodies, % exp 3 ([1]; 10 μM): 15%
percentage of picnotic bodies, % exp.1 ([1]; 10 μM): 14.3%
percentage of picnotic bodies over total nuclei, average ([1]; 10 μM, DMSO 12.1667): 13.9333%
percentage of picnotic bodies, % exp 2 ([1]; 20 μM): 17.5%
percentage of picnotic bodies, % exp 3 ([1]; 20 μM): 22.6%
percentage of picnotic bodies, % exp.1 ([1]; 20 μM): 15.3%
percentage of picnotic bodies over total nuclei, average ([1]; 20 μM, DMSO 12): 18.4667%
cell toxicity in neurons compared with vehicle DMSO ([1]; 0.2, 2, 10, 20 μM): no significant differences
binding to dNCS-1 (1H-NMR evolution of the mixture 3c + 2b with dNCS-1) (dNCS-1): a dNCS-1 ligand
synapse number in aβ42arc flies ([3]; fed 100 μM throughout life cycle, 20-day old adults): pathological phenotype was largely suppressed
synapse number in control (LacZ) flies ([3]; fed 100 μM): no effect

— paper PMC6595003, “Insights into real-time chemical processes in a calcium sensor protein-directed dynamic library” (Nature Communications, 2019)
